4 compounds from ChEMBL document CHEMBL1136070, “Design and synthesis of phosphotyrosine mimetics” (Bioorg Med Chem Lett, 2003) can be followed below.

Assay [1] has as its target Receptor-type tyrosine-protein phosphatase F (Homo sapiens) (UniProt P10586). The experiment in a line: Compound was tested for inhibition of Lar tyrosine phosphatase at a concentration of 10 uM in fluorometric assay using DiFMUP.
For assay [2] the target is unchanged. As to the kind of experiment: Compound was tested for inhibition of Lar tyrosine phosphatase at a concentration of 100 uM in fluorometric assay using DiFMUP.
Assay [3] has as its target T1, Tyrosine-protein phosphatase non-receptor type 2 (Homo sapiens) (UniProt P17706).
T1 sequence (whole entry): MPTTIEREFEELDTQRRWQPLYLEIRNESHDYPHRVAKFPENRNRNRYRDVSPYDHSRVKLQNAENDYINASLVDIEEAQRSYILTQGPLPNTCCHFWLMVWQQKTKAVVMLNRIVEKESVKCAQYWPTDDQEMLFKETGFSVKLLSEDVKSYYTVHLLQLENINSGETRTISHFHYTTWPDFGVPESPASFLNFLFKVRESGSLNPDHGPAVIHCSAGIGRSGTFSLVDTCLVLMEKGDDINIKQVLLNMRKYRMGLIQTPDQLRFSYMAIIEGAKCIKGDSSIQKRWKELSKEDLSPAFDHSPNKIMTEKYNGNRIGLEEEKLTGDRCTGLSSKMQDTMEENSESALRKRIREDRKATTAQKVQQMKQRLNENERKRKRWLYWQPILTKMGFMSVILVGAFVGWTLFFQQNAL
As to the kind of experiment: Compound was tested for inhibition of T-cell protein tyrosine phosphatase TC-PTP at a concentration of 10 uM in fluorometric assay using DiFMUP.

Assay [4] concerns the target T1, Tyrosine-protein phosphatase non-receptor type 2 (Homo sapiens). The experiment in a line: Compound was tested for inhibition of T-cell protein tyrosine phosphatase TC-PTP at a concentration of 100 uM in fluorometric assay using DiFMUP.
Assay [5] has as its target T2, Tyrosine-protein phosphatase non-receptor type 1 (Homo sapiens) (UniProt P18031).
T2 sequence (whole entry): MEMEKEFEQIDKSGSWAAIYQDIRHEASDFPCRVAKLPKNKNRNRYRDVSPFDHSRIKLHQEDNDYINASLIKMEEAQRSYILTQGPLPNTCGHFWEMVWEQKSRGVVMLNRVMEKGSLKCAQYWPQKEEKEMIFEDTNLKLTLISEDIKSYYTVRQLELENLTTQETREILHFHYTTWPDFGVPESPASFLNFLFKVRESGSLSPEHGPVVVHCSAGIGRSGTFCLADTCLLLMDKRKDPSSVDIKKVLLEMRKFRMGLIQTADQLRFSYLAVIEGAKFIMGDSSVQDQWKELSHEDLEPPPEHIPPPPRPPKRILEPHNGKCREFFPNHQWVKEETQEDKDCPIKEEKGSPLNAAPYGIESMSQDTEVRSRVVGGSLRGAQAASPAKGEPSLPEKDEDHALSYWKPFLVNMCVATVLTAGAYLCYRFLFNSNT
As to the kind of experiment: Compound was tested for inhibition of Protein-tyrosine phosphatase 1B at a concentration of 10 uM in fluorometric assay using DiFMUP.

Assay [6] has as its target T2, Tyrosine-protein phosphatase non-receptor type 1 (Homo sapiens). As to the kind of experiment: Compound was tested for inhibition of Protein-tyrosine phosphatase 1B at a concentration of 100 uM in fluorometric assay using DiFMUP.
For assay [7], the target named is Receptor-type tyrosine-protein phosphatase C (CD45) (Homo sapiens) (UniProt P08575). As to the kind of experiment: Compound was tested for inhibition of CD45 tyrosine phosphatase at a concentration of 10 uM in fluorometric assay using DiFMUP.
The target is the same in assay [8]. The experiment in a line: Compound was tested for inhibition of CD45 tyrosine phosphatase at a concentration of 100 uM in fluorometric assay using DiFMUP.

Sequence of Receptor-type tyrosine-protein phosphatase C (CD45) (Homo sapiens) (P08575 whole entry, looked up): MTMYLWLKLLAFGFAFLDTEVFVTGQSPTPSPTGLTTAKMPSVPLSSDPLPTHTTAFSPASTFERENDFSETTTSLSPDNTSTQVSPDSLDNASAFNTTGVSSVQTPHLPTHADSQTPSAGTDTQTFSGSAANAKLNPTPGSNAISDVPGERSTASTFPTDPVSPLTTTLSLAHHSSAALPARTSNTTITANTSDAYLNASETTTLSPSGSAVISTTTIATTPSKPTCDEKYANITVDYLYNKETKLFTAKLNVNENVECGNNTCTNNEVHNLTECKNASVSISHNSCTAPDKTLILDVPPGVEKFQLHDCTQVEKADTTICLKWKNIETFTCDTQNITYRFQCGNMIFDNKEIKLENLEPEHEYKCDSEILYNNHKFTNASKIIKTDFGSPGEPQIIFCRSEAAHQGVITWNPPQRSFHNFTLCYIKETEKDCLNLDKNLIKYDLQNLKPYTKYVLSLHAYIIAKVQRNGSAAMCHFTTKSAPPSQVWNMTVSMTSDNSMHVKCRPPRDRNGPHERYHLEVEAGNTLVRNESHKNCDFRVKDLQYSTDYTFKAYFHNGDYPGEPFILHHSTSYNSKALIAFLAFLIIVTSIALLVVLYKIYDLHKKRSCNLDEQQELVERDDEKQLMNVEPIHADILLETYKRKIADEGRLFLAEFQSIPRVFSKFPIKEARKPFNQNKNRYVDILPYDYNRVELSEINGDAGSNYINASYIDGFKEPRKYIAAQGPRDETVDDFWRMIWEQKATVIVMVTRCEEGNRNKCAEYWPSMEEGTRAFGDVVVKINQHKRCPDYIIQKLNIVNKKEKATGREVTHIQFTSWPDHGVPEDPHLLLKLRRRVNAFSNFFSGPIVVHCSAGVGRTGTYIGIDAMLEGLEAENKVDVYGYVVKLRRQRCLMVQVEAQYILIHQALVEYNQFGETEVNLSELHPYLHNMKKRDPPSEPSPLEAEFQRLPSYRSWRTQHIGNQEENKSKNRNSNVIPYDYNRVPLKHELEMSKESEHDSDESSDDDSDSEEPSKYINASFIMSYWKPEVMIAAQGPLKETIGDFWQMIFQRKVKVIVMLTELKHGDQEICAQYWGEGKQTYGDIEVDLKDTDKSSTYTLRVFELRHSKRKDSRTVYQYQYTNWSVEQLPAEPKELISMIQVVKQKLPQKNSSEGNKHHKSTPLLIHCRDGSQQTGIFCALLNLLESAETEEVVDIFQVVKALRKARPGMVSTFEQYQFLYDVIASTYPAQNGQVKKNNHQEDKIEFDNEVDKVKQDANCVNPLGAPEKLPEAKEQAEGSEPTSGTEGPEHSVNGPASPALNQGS
Sequence of Receptor-type tyrosine-protein phosphatase F (Homo sapiens) (P10586 whole entry): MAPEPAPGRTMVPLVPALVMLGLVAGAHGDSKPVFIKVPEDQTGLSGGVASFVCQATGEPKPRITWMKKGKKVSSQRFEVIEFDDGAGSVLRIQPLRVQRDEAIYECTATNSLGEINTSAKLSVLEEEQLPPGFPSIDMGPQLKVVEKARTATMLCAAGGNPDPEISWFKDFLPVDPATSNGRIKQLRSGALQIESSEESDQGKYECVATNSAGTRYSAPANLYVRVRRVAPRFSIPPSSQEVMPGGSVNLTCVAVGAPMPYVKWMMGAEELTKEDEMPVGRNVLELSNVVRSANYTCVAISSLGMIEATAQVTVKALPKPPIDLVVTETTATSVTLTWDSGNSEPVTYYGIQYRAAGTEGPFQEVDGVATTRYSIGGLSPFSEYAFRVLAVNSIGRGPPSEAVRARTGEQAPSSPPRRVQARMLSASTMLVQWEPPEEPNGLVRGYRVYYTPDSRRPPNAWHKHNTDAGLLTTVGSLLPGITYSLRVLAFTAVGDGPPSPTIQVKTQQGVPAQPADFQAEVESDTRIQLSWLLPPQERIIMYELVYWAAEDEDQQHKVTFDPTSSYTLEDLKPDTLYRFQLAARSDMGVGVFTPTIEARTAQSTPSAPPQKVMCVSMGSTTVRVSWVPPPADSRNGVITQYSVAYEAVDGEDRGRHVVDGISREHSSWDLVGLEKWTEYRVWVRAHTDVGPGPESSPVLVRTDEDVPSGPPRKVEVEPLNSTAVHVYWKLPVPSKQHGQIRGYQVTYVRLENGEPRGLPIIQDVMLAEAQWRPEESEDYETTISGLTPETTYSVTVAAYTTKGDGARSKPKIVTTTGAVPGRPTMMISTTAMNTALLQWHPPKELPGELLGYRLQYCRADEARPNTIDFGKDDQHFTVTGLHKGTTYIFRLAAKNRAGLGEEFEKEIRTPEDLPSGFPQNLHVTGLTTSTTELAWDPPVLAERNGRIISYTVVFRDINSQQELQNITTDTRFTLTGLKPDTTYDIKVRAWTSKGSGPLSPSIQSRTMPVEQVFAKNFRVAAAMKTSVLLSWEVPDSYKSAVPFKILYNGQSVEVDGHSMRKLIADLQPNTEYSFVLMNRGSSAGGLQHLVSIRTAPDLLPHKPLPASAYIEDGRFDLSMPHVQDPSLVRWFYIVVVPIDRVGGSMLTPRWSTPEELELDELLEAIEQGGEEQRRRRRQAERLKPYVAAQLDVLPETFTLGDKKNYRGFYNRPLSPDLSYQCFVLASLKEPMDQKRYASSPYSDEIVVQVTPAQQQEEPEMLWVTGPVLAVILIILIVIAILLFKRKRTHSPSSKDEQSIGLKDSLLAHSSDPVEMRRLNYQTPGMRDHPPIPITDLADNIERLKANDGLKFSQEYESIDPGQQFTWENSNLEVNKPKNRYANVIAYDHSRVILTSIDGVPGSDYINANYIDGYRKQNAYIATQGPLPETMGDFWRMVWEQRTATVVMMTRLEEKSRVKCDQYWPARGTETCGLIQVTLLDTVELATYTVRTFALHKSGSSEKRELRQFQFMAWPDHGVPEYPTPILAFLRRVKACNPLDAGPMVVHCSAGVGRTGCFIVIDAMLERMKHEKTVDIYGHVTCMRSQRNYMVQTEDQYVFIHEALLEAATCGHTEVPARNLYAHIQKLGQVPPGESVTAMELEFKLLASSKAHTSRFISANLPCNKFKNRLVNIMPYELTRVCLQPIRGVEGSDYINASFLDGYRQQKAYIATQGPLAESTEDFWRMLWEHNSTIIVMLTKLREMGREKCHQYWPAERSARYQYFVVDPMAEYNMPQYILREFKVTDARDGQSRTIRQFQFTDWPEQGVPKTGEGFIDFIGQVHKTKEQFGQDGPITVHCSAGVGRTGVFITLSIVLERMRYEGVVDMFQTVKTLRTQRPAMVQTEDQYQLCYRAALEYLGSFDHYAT

As for `O=C(O)CCCC1C=CC(C(=O)NC(Cc2ccc3sccc(=O)c3c2)C(=O)O)n2c(=O)n(CC3CCCCC3)c(=O)n21` (configuration not stated), the inhibition in assay [1] came out at 0%; in assay [2], 10%; in assay [3] it was 10%; in assay [4] it was 20%; in assay [5], 40%; in assay [6] it was 70%. The inhibition in assay [7] came to 20%; in assay [8], 70%.

For the compound `O=C(O)CCCC1C=CC(C(=O)NC(Cc2ccc3sccc(=O)c3c2)C(=O)O)n2c(=O)n(Cc3cc(F)ccc3F)c(=O)n21` (configuration not stated), the inhibition in assay [1] came to 25%; in assay [2] it was 50%; in assay [3], 85%; in assay [4], 100%; in assay [5] it was 0%; in assay [6], 95%. Also, the values for the inhibition in assay [7] and in assay [8] were 5% and 50%, respectively.

For `O=C(O)CCCC1C=CC(C(=O)NC(Cc2ccc3sccc(=O)c3c2)C(=O)O)n2c(=O)n(-c3ccc(Oc4ccccc4)cc3)c(=O)n21` (configuration not stated), the inhibition in assay [1] came to 50%; in assay [2] it was 70%; in assay [3] it was 85%; in assay [4] it was 100%; in assay [5], 75%; in assay [6], 100%. The inhibition in assay [7] stood at 20%; in assay [8], 70%.

For the compound `CC(Cn1c(=O)n2n(c1=O)C(C(=O)NC(Cc1ccc3sccc(=O)c3c1)C(=O)O)C=CC2CCCC(=O)O)c1ccccc1` (configuration not stated), the inhibition in assay [1] was 10%; in assay [2] it was 50%; in assay [3], 20%; in assay [4], 90%; in assay [5], 55%; in assay [6], 95%. Moreover, the inhibition in assay [7] turned out to be 15%; in assay [8], 55%.

By inhibition is commonly meant the change of the read-out against control, counted positive when it falls. Read a low inhibition as little suppression.
